Test results published in patent US7838025B2, “Products and methods for maintaining or increasing ceramide levels in skin” (Kimberly-Clark Worldwide, Inc., priority 2002, dated 2010).

Legend:
sphingomyelinase = target: T1, sphingomyelinase (Bacillus cereus, UniProt P11889); assay: SAST Sphingomyelinase Activity Screening Test; format: biochemical; conditions: test band brightness divided by average of positive controls; above 1 enhancer, below 1 inhibitor; BODIPY FL C5-Sphingomyelin substrate, 30 minutes, 25° C., PBS pH=7.4
T1 construct: purchased Sigma Chemical, St. Louis, Mo; S7651
Experimental: Agents, such as botanical extracts and related compounds, for example, are tested for their ability to increase the activity of sphingomyelinase in a sphingomyelinase/sphingomyelin-containing system. An increase in the activity of sphingomyelinase results in an increase in the hydrolysis of sphingomyelin and an increased production of ceramide. The Sphingomyelinase Activity Screening Test to determine the efficacy of an agent is completed as follows:
Step 1: Preparation of Testing Solution Comprising Sphingomyelinase, Sphingomyelin, and Agent: Combine the following to prepare a 100 microliter test solution: (1) 10 microliters of agent (such as a botanical extract, for example) where the agent is an aqueous solution or oil (if the agent is a powder or solid, prepare 10 microliters of a 0.1 microgram/milliliter solution by dissolving the appropriate amount of powder or solid in Phosphate Buffered Saline, pH=7.4); (2) 10 microliters of a 0.1 microgram/milliliter sphingomyelinase (Catalogue No. S7651, Sigma Chemical, St. Louis, Mo. (or equivalent)) in Phosphate Buffered Saline, pH=7.4, solution; (3) 10 microliters of a 250 microgram/milliliter BODIPY FL C5-Sphingomyelin (Molecular Probes, Eugene, Oreg. (or equivalent)) in Phosphate Buffered Saline, pH=7.4, solution; and (4) 70 microliters of Phosphate Buffered Saline, pH=7.4.
Step 2: Preparation of Control Testing Solution Comprising Sphingomyelinase and Sphingomyelin: Combine the following to prepare a 100 microliter test solution: (1) 10 microliters of a 0.1 microgram/milliliter sphingomyelinase in Phosphate Buffered Saline, pH=7.4, solution; (2) 10 microliters of a 250 microgram/milliliter BODIPY FL C5-Sphingomyelin in Phosphate Buffered Saline, pH=7.4, solution; and (3) 80 microliters of Phosphate Buffered Saline, pH=7.4. […]

[1] = tested on: ceramidase (infant fecal extract); assay: CAST Ceramidase Activity Screening Test; format: biochemical; conditions: relative to positive control, above 1 enhancer, below 1 inhibitor, C5 ceramide substrate, 18 hours, 25° C., PBS pH=7.4
Experimental: Agents, such as botanical extracts and related compounds, for example, are tested for their ability to decrease the activity of ceramidase in a ceramidase/ceramide system. A decrease in the activity of ceramidase results in an increase in the level of ceramides. The Ceramidase Activity Screening Test is completed as follows:
Step 1: Preparation of Testing Solution Comprising Ceramidase (Fecal Extract), Agent, and Ceramide: Combine the following to prepare a 100 microliter test solution: (1) 10 microliters of agent where the agent is an aqueous solution or oil (if the agent is a powder solid, prepare 10 microliters of a 0.1 microgram/milliliter solution by dissolving the appropriate amount of powder or solid in Phosphate Buffered Saline, pH=7.4); (2) 10 microliters of infant fecal extract in Phosphate Buffered Saline, pH=7.4 prepared by extracting 1 gram of infant feces in 9 mL of Phosphate Buffered Saline, pH=7.4, and vortexing the extraction for about 2 minutes followed by centrifugation to remove any solids; (3) 10 microliters of 250 microgram/milliliter C5 ceramide in Phosphate Buffered Saline, pH=7.4; and (4) 70 microliters of Phosphate Buffered Saline, pH=7.4.
Step 2: Preparation of Control Testing Solution Comprising Ceramidase and Ceramide: Combine the following to prepare a 100 microliter test solution: (1) 10 microliters of infant fecal extract in Phosphate Buffered Saline, pH=7.4; (2) 10 microliters of 250 microgram/milliliter BIODIPY FL C5 ceramide (Molecular Probes, Eugene, Wash.) in Phosphate Buffered Saline, pH=7.4; and (3) 80 microliters of Phosphate Buffered Saline, pH=7.4. […]
Step 3: Illuminate each plate with a 364 nanometer light source and take pictures with a suitable camera, such as a digital Kodak DC 40. The digital image is transferred as a TIFF file to the Alpha Innotech Flourchem Plate Imaging System and analyzed as described above with similar positive (substrate and ceramidase) and negative (substrate and no enzyme) controls. […]

T1 sequence (P11889 28-333): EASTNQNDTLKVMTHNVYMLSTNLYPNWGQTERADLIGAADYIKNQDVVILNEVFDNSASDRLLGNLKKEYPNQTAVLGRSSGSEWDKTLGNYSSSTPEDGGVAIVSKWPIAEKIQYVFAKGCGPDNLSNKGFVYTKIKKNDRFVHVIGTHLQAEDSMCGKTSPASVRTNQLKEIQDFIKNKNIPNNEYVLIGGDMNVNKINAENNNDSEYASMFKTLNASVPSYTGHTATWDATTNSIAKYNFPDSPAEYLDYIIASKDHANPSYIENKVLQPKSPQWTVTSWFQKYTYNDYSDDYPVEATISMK

## Potassium Laureth Phosphate
sphingomyelinase
  Effect on Sphingomyelinase Activity: 0.1 Times Activity
[1]
  Effect on Ceramidase Activity: No Effect

## CC(=O)Oc1c(C)c(C)c2c(c1C)CC[C@@](C)(CCC[C@H](C)CCC[C@H](C)CCCC(C)C)O2 [D1-alpha-Tocophenyl Acetate]
sphingomyelinase
  Effect on Sphingomyelinase Activity: 0.6 Times Activity
[1]
  Effect on Ceramidase Activity: ≧1 Times Activity

## Sunflower Seedaminopropyl Morpholine Lactate
sphingomyelinase
  Effect on Sphingomyelinase Activity: 0.1 Times Activity
[1]
  Effect on Ceramidase Activity: No Effect
